Measurements as given in the NIST ThermoML archive (doi:10.1016/j.fluid.2010.02.021).
Numbers after ± are expanded uncertainties.

Assay: xn = mol fraction of the nth substance listed
Conditions: 101.3 kPa, Liquid, Falling or rolling sphere viscometry

CCn1cc[n+](C)c1.O=S(=O)([N-]S(=O)(=O)C(F)(F)F)C(F)(F)F + O
viscosity [mPa·s]
Conditions	x2 = 0	x2 = 0.1074	x2 = 0.2228	x2 = 0.3027
303.15 K	28.6 ± 0.9	23.8 ± 0.7	19.4 ± 0.6	16.4 ± 0.5
323.15 K	15.9 ± 0.5	13.6 ± 0.4	11.4 ± 0.4	9.9 ± 0.31
